Test results as given in patent US11702418B2, “SOS1 inhibitors” (priority 2019, dated 2023).
pIC50, pKi: −log10 of the molar value. Like-named read-outs stand apart in the source and are kept apart here.

Key:
[1] = tested on: pERK in MKN1 cells; assay: cells; format: cell-based; conditions: Homo sapiens, MKN-1, pERK inhibition, In-Cell Western, MKN1 or H358 cells (Table 24 does not say which), 0.5-1 hour incubation
[2] = target: recombinant human SOS1 polypeptide (amino acids 560-1049) (Homo sapiens (Human), UniProt Q07889); assay: biochemical; format: binding
[3] = HTRF displacement, Cy5 labelled tracer, Morrison equation for competitive binding, read-out: Ki, Inhibition of Labeled Tracer Binding to SOS1
[4] = read-out: Ki, Inhibition of Labeled Tracer Binding to SOS1

recombinant human SOS1 polypeptide (amino acids 560-1049), sequence (Q07889 560-1049): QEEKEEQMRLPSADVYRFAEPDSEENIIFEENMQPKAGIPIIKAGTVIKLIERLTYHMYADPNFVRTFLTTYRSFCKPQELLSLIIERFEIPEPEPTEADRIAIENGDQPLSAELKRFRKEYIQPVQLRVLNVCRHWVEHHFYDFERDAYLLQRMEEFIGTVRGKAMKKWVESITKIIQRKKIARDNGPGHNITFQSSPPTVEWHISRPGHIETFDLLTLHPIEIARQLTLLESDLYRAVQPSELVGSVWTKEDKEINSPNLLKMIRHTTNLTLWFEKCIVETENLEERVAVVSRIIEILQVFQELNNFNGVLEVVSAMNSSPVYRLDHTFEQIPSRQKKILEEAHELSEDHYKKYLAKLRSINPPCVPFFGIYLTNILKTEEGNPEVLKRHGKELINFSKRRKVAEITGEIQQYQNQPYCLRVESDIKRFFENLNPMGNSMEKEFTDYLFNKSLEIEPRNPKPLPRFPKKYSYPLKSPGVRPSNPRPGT

SMILES | pIC50 ([1]; read-out: IC50) | pKi [2, 3] | pIC50 [1] | pKi [2] | pKi [2, 4]
Cc1nnc(N[C@H](C)c2cc(N)cc(C(F)(F)F)n2)c2cc(N3C[C@H]4CC[C@@H]3CN4C)ccc12 [Example 16-5, N-((R)-1-(4-amino-6-(trifluoromethyl)pyridin-2-yl)ethyl)-4-methyl-7-((1R, 4R)-5-methyl-2,5-diazabicyclo[2.2.2]octan-2-yl)phthalazin-1-amine] | 7.15 | 8.26 | – | – | –
Cc1nnc(N[C@H](C)c2cc(N)cc(C(F)(F)F)n2)c2cc(N3C[C@H]4CC[C@@H]3CN4C)ncc12 [Example 16-6, N-((R)-1-(4-amino-6-(trifluoromethyl)pyridin-2-yl)ethyl)-4-methyl-7-((1R, 4R)-5-methyl-2,5-diazabicyclo[2.2.2]octan-2-yl)pyrido[3,4-d]pyridazin-1-amine] | 6.62 | 8.19 | – | – | –
Cc1nnc(N[C@H](C)c2cc(N)cc(C(F)(F)F)n2)c2cc(N3CC4(CCN(C)C4=O)C3)ncc12 [Example 16-7, (R)-2-(1-((1-(4-amino-6-(trifluoromethyl)pyridin-2-yl)ethyl)amino)-4-methylpyrido[3,4-d]pyridazin-7-yl)-6-methyl-2,6-diazaspiro[3.4]octan-5-one] | 5.54 | 7.10 | – | – | –
Cc1nnc(N[C@H](C)c2cc(N)cc(C(F)(F)F)n2)c2cc(N3C[C@H]4C[C@@H]3CO4)ccc12 [Example 16-8, N-((R)-1-(4-amino-6-(trifluoromethyl)pyridin-2-yl)ethyl)-7-((1R, 4R)-2-oxa-5-azabicyclo[2.2.1]heptan-5-yl)-4-methylphthalazin-1-amine] | 7.03 | 7.67 | – | – | –
Cc1nnc(N[C@H](C)c2cc(N)cc(C(F)(F)F)n2)c2cc(N3CC(C)(N(C)C)C3)ccc12 [Example 16-9, (R)-N-(1-(4-amino-6-(trifluoromethyl)pyridin-2-yl)ethyl)-7-(3-(dimethylamino)-3-methylazetidin-1-yl)-4-methylphthalazin-1-amine] | 6.19 | 7.45 | – | – | –
Cc1nnc(N[C@H](C)c2cc(N)cc(C(F)(F)F)n2)c2cc(N3CC(C)(O)C3)ccc12 [Example 16-10, (R)-1-(4-((1-(4-amino-6-(trifluoromethyl)pyridin-2-yl)ethyl)amino)-1-methylphthalazin-6-yl)-3-methylazetidin-3-ol] | 6.04 | 7.09 | – | – | –
Cc1nnc(N[C@H](C)c2cc(N)cc(C(F)(F)F)n2)c2cc(N3CC4CC(C3)O4)ncc12 [Example 16-13, N-((R)-1-(4-amino-6-(trifluoromethyl)pyridin-2-yl)ethyl)-7-(6-oxa-3-azabicyclo[3.1.1]heptan-3-yl)-4-methylpyrido[3,4-d]pyridazin-1-amine] | < 5.00 | 7.59 | – | – | –
Cc1nnc(N[C@H](C)c2cc(N)c(F)c(C(F)(F)F)c2)c2cc(N3C[C@H]4C[C@@H]3CO4)ccc12 [Example 16-14, N-((R)-1-(3-amino-4-fluoro-5-(trifluoromethyl)phenyl)ethyl)-7-((1R,4R)-2-oxa-5-azabicyclo[2.2.1]heptan-5-yl)-4-methylphthalazin-1-amine] | 7.43 | 8.77 | – | – | –
COc1c(C#N)cccc1[C@@H](C)Nc1nnc(C)c2cnc(N3CCOCC3)cc12 [Example 17-1, (R)-2-methoxy-3-(1-((4-methyl-7-morpholinopyrido[3,4-d]pyridazin-1-yl)amino)ethyl)benzonitrile] | – | – | 7.52 | 8.36 | –
COc1c(C#N)cccc1[C@@H](C)Nc1nnc(C)c2cnc(N3CC(C)(O)C3)cc12 [Example 17-3, (R)-3-(1-((7-(3-hydroxy-3-methylazetidin-1-yl)-4-methylpyrido[3,4-d]pyridazin-1-yl)amino)ethyl)-2-methoxybenzonitrile] | 6.73 | 7.89 | – | – | –
COc1c(C#N)cccc1[C@@H](C)Nc1nnc(C)c2ccc(N3CC(C)(O)C3)cc12 [Example 17-4, (R)-3-(1-((7-(3-hydroxy-3-methlazetidin-1-yl)-4-methylpyridazin-1-yl)amino)ethyl)-2-methoxybenzonitrile] | 6.94 | 7.84 | – | – | –
Cc1c([C@@H](C)Nc2nnc(C)c3cc(F)c(N4CCNCC4)cc23)cccc1C(F)(F)F [Example 18-1, (R)-6-fluoro-4-methyl-N-(1-(2-methyl-3-(trifluoromethyl)phenyl)ethyl)-7-(piperazin-1-yl)phthalazin-1-amine] | – | – | 6.89 | – | 9.01
Cc1c([C@@H](C)Nc2nnc(C)c3cc(F)c(N4CCOCC4)cc23)cccc1C(F)(F)F [Example 18-2, (R)-6-fluoro-4-methyl-N-(1-(2-methyl-3-(trifluoromethyl)phenyl)ethyl)-7-morpholinophthalazin-1-amine] | – | – | 6.42 | – | 8.28
Cc1c(C#N)cccc1[C@@H](C)Nc1nnc(C)c2cc(F)c(N3CCNCC3)cc12 [Example 18-4, (R)-3-(1-((6-fluoro-4-methyl-7-(piperazin-1-yl)phthalazin-1-yl)amino)ethyl)-2-methylbenzonitrile] | 7.39 | 8.79 | – | – | –
Cc1c(C#N)cccc1[C@@H](C)Nc1nnc(C)c2cc(C(F)(F)F)c(N3CC(C)(N(C)C)C3)cc12 [Example 19-1, (R)-3-(1-((7-(3-(dimethylamino)-3-methylazetidin-1-yl)-4-methyl-6-(trifluoromethyl)phthalazin-1-yl)amino)ethyl)-2-methylbenzonitrile] | 6.81 | 8.21 | – | – | –
Cc1c(C#N)cccc1[C@@H](C)Nc1nnc(C)c2cc(C(F)(F)F)c(N3CC(C)(O)C3)cc12 [Example 19-3, (R)-3-(1-((7-(3-hydroxy-3-methylazetidin-1-yl)-4-methyl-6-(trifluoromethyl)phthalazin-1-yl)amino)ethyl)-2-methylbenzonitrile] | 6.94 | 7.71 | – | – | –
Cc1nnc(N[C@H](C)c2cccc(C(F)(F)C(C)(C)O)c2F)c2cc(N3CCN4CCOC[C@@H]4C3)ncc12 [Example 20-2, 1,1-difluoro-1-(2-fluoro-3-((R)-1-((7-((S)-hexahydropyrazino[2,1-c][1,4]oxazin-8(1H)-yl)-4-methylpyrido[3,4-d]pyridazin-1-yl)amino)ethyl)phenyl)-2-methylpropan-2-ol] | 8.10 | 9.12 | – | – | –
Cc1nnc(N[C@H](C)c2cccc(C(F)(F)C(C)(C)O)c2F)c2cc(N3CC4CC(C3)O4)ncc12 [Example 20-3, 1-(3-((1R)-1-((7-(6-oxa-3-azabicyclo[3.1.1]heptan-3-yl)-4-methylpyrido[3,4-d]pyridazin-1-yl)amino)ethyl)-2-fluorophenyl)-1,1-difluoro-2-methylpropan-2-ol] | 7.80 | 9.04 | – | – | –
Cc1nnc(N[C@H](C)c2cc(O)cc(C(F)(F)F)c2)c2cc(N3CCOCC3)ncc12 [Example 21-1, (R)-3-(1-((4-methyl-7-morpholinopyrido[3,4-d]pyridazin-1-yl)amino)ethyl)-5-(trifluoromethyl)phenol] | 7.11 | 8.53 | – | – | –
Cc1nnc(N[C@H](C)c2cc(O)cc(C(F)(F)F)c2)c2cc(N3CCOCC3)ccc12 [Example 21-2, (R)-3-(1-((4-methyl-7-morpholinophthalazin-1-yl)amino)ethyl)-5-(trifluoromethyl)phenol] | – | – | 6.86 | 8.78 | –
Cc1cc(C#N)cc([C@@H](C)Nc2nnc(C)c3cnc(N4CCOCC4)cc23)c1 [Example 21-3, (R)-3-methyl-5-(1-((4-methyl-7-morpholinopyrido[3,4-d]pyridazin-1-yl)amino)ethyl)benzonitrile] | – | – | 6.66 | – | 7.84
Cc1cc(C#N)cc([C@@H](C)Nc2nnc(C)c3ccc(N4CCOCC4)cc23)c1 [Example 21-4, (R)-3-methyl-5-(1-((4-methyl-7-morpholinophthalazin-1-yl)amino)ethyl)benzonitrile] | – | – | 6.93 | – | 7.86
Cc1c([C@@H](C)Nc2nnc(C)c3ccc(N4CC[C@@H](N(C)C)C(F)(F)C4)cc23)cccc1C(F)(F)F [Example 21-5, 7-((R)-4-(dimethylamino)-3,3-difluoropiperidin-1-yl)-4-methyl-N—((R)-1-(2-methyl-3-(trifluoromethyl)phenyl)ethyl)phthalazin-1-amine] | 5.95 | 8.87 | – | – | –
Cc1c([C@@H](C)Nc2nnc(C)c3ccc(N4CC[C@H](N(C)C)C(F)(F)C4)cc23)cccc1C(F)(F)F [Example 21-6, 7-((S)-4-(dimethylamino)-3,3-difluoropiperidin-1-yl)-4-methyl-N—((R)-1-(2-methyl-3-(trifluoromethyl)phenyl)ethyl)phthalazin-1-amine] | 6.75 | 9.03 | – | – | –
Cc1nnc(N[C@H](C)c2cccc(C(F)(F)CO)c2)c2cc(N3CCOCC3)ncc12 [Example 21-7, (R)-2,2-difluoro-2-(3-(1-((4-methyl-7-morpholinopyrido[3,4-d]pyridazin-1-yl)amino)ethyl)phenyl)ethan-1-ol] | – | – | 7.59 | – | 9.15
Cc1c([C@@H](C)Nc2nnc(C)c3ccc(N4CCOCC4)cc23)cc(F)cc1C(F)(F)F [Example 21-8, (R)—N-(1-(5-fluoro-2-methyl-3-(trifluoromethyl)phenyl)ethyl)-4-methyl-7-morpholinophthalazin-1-amine] | 7.05 | 8.50 | – | – | –
Cc1c(C#N)cccc1[C@@H](C)Nc1nnc(C)c2c(F)cc(N3CCN4COCC[C@@H]4C3)cc12 [Example 21-9, 3-((R)-1-((5-fluoro-7-((R)-hexahydro-2H,6H-pyrazino[1,2-c][1,3]oxazin-2-yl)-4-methylphthalazin-1-yl)amino)ethyl)-2-methylbenzonitrile] | 7.27 | 8.68 | – | – | –
Cc1c(C#N)cccc1[C@@H](C)Nc1nnc(C)c2c(F)cc(N3CC(C)(O)C3)cc12 [Example 21-10, (R)-3-(1-((5-fluoro-7-(3-hydroxy-3-methylazetidin-1-yl)-4-methylphthalazin-1-yl)amino)ethyl)-2-methylbenzonitrile] | 7.24 | 8.24 | – | – | –
